pIC50: −log10 of the molar value. Where two headings read alike, the source gives them in different places.
Assays:
Kv1.3 potassium channel = biological target: T1, Kv1.3 potassium channel (Homo sapiens, UniProt P22001); assay: Kv1.3 potassium channel blocker activity, automated whole-cell patch clamp (Patchliner); type: cell-based; conditions: whole-cell current inhibition, Hill fit
T1 construct: expressed in transfected cells
Experimental: CHO-K1 cells stably expressing Kv1.3 were grown in DMEM containing 10% heat-inactivated FBS, 1 mM sodium pyruvate, 2 mM L-glutamine and G418 (500 μg/ml).
The currents were evoked by applying 100 ms depolarizing pulses from −90 mV (holding potential) to +40 mV were applied with 0.1 Hz frequency. […] 10-second breaks were used between pulse trains (see Table H below).
Passive leak currents were subtracted online using a P/4 procedure (HEKA Elektronik Dr. Schulze GmbH). […] Total compound incubation time before the next pulse train was not longer than 10 seconds. Peak current inhibition was observed during compound equilibration.

hERG channel [1] = biological target: T2, hERG channel (Homo sapiens, UniProt Q12809); assay: cell-based
Experimental: (§1) This assay is used to evaluate the disclosed compounds' inhibition activities against the hERG channel.
(§2) CHO-K1 cells stably expressing hERG were grown in Ham's F-12 Medium with glutamine containing 10% heat-inactivated FBS, 1% penicillin/streptomycin, hygromycin (100 μg/ml) and G418 (100 μg/ml). Cells were grown in culture flasks at 37° C. in a 5% CO2-humidified incubator.
(§3) All compounds were dissolved in DMSO at 30 mM. Compound stock solutions were freshly diluted with external solution to concentrations of 30 nM, 100 nM, 300 nM, 1 μM, 3 μM, 10 μM, 30 μM and 100 μM. The highest content of DMSO (0.3%) was present in 100 μM.
(§4) The voltage protocol (see Table I) was designed to simulate voltage changes during a cardiac action potential with a 300 ms depolarization to +20 mV (analogous to the plateau phase of the cardiac action potential), a repolarization for 300 ms to −50 mV (inducing a tail current) and a final step to the holding potential of −80 mV. The pulse frequency was 0.3 Hz. Control (compound-free) and compound pulse trains for each compound concentration applied contained 70 pulses.
(§5) Whole-cell current recordings and compound application were enabled by means of an automated patch clamp platform Patchliner (Nanion). EPC 10 patch clamp amplifier (HEKA) along with Patchmaster software (HEKA Elektronik Dr. Schulze GmbH) was used for data acquisition. Data were sampled at 10 kHz without filtering. Increasing compound concentrations were applied consecutively to the same cell without washouts in between.
(§6) AUC and PEAK values were obtained with Patchmaster (HEKA Elektronik Dr. Schulze GmbH). To determine IC50 the last single pulse in the pulse train corresponding to a given compound concentration was used. Obtained AUC and PEAK values in the presence of compound were normalized to control values in the absence of compound.

hERG channel [2] = biological target: T2, hERG channel; assay: hERG electrophysiology, automated whole-cell patch clamp (Patchliner); conditions: read-out: hERG IC50; CHO-K1 cells stably expressing hERG; whole-cell current inhibition, Hill fit
Experimental: as §1, §2, §3, §4, §5, §6

[3] = CHO-K1 cells stably expressing Kv1.3, read-out: Kv1.3 IC50

T2 sequence (Q12809 whole entry): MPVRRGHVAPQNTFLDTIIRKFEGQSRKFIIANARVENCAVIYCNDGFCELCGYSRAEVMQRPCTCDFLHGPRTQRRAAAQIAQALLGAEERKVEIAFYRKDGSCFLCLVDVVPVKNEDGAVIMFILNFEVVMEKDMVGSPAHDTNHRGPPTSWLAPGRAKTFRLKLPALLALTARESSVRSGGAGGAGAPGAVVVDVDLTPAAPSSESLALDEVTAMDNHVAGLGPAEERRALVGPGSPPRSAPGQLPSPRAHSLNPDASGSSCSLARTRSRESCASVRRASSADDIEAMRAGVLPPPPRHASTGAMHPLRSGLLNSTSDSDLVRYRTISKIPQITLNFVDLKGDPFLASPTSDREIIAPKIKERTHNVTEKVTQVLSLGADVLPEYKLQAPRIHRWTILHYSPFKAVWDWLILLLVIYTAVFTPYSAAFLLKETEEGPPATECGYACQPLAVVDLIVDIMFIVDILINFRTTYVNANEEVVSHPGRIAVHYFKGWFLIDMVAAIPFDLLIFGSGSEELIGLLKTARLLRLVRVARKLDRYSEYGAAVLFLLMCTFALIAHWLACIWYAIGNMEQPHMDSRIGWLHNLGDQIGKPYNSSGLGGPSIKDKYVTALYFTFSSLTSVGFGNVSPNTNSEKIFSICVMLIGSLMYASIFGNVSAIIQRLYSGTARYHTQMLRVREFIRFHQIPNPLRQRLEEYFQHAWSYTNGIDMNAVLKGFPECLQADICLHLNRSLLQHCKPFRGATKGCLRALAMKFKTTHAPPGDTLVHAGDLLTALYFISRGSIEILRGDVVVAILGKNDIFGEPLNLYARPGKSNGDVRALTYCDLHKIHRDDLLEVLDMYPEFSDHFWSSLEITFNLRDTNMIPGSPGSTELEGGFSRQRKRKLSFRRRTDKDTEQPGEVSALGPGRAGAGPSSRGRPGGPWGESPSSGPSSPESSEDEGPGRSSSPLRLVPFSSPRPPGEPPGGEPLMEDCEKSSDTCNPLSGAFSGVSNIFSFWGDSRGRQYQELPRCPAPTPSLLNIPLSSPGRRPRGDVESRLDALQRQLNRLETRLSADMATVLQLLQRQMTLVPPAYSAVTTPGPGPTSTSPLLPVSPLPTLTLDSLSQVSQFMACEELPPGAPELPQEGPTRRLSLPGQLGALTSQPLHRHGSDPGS
T1 sequence (P22001 whole entry): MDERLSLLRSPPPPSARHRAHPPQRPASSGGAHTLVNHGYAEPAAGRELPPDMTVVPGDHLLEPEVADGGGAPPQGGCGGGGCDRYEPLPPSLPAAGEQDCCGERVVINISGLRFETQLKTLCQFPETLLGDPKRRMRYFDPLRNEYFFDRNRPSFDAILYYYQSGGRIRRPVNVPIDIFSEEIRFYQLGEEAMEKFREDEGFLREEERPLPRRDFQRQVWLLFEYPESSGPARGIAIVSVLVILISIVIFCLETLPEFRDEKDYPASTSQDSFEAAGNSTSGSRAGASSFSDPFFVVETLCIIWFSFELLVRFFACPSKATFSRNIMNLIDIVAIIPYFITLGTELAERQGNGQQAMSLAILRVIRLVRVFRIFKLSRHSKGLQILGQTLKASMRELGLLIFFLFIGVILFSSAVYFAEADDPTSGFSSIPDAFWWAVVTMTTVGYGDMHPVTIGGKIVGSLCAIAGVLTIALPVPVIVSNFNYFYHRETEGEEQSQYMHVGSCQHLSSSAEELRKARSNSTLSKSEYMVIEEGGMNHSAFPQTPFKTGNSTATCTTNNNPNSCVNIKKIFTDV

Compound	pIC50 (Kv1.3 potassium channel; [3])	pIC50 (hERG channel [1])	pIC50 (Kv1.3 potassium channel; Kv1.3 IC50, CHO-K1 cells stably expressing Kv1.3)	pIC50 (hERG channel [2])
O=C1C[C@@H](c2c(O)ccc(Cl)c2Cl)CN1C[C@H](O)CO [Compound 30, (4S)-4-(2,3-dichloro-6-hydroxyphenyl)-1-[(2S)-2,3-dihydroxypropyl]pyrrolidin-2-one]	> 7.00	< 4.00	–	–
O=C1C[C@@H](c2c(O)ccc(Cl)c2Cl)CN1C[C@@H](O)CO [Compound 33, (4S)-4-(2,3-dichloro-6-hydroxyphenyl)-1-[(2R)-2,3-dihydroxypropyl]pyrrolidin-2-one]	> 7.00	< 4.00	–	–
NC(=O)CN1C[C@H](c2c(O)ccc(Cl)c2Cl)CC1=O [Compound 34, 2-[(4S)-4-(2,3-dichloro-6-hydroxyphenyl)-2-oxopyrrolidin-1-yl]acetamide]	–	< 4.00	> 7.00	–
O=C1C[C@@H](c2c(O)ccc(Cl)c2Cl)CN1CCCO [Compound 35, (4S)-4-(2,3-dichloro-6-hydroxyphenyl)-1-(3-hydroxypropyl)pyrrolidin-2-one]	> 8.00	< 4.52	–	–
COCCN1C[C@H](c2c(O)ccc(Cl)c2Cl)CC1=O [Compound 36, (4S)-4-(2,3-dichloro-6-hydroxyphenyl)-1-(2-methoxyethyl)pyrrolidin-2-one]	> 7.00	< 4.52	–	–
O=C1C[C@@H](c2c(O)ccc(Cl)c2Cl)CN1CCC(F)(F)F [Compound 37, (4S)-4-(2,3-dichloro-6-hydroxyphenyl)-1-(3,3,3-trifluoropropyl)pyrrolidin-2-one]	> 6.00	< 4.00	–	–
NC(=O)CCN1C[C@H](c2c(O)ccc(Cl)c2Cl)CC1=O [Compound 40, (S)-3-(4-(2,3-dichloro-6-hydroxyphenyl)-2-oxopyrrolidin-1-yl)propanamide]	> 7.00	< 4.00	–	–
CN(C)C(=O)CCN1C[C@H](c2c(O)ccc(Cl)c2Cl)CC1=O [Compound 41, (S)-3-(4-(2,3-dichloro-6-hydroxyphenyl)-2-oxopyrrolidin-1-yl)-N,N-dimethylpropanamide]	> 7.00	< 4.00	–	–
O=C1C[C@@H](c2c(O)ccc(Cl)c2Cl)CN1CC(CO)CO [Compound 42, (4S)-4-(2,3-dichloro-6-hydroxyphenyl)-1-[3-hydroxy-2-(hydroxymethyl)propyl]pyrrolidin-2-one]	> 7.00	< 4.52	–	–
NCCCN1C[C@H](c2c(O)ccc(Cl)c2Cl)CC1=O [Compound 43, (4S)-1-(3-aminopropyl)-4-(2,3-dichloro-6-hydroxyphenyl)pyrrolidin-2-one]	> 8.00	< 4.52	–	–
COCCCN1C[C@H](c2c(O)ccc(Cl)c2Cl)CC1=O [Compound 44, (S)-4-(2,3-dichloro-6-hydroxyphenyl)-1-(3-methoxypropyl)pyrrolidin-2-one]	> 7.00	< 5.00	–	–
O=C1C[C@@H](c2c(O)ccc(Cl)c2Cl)CN1CC1(CO)CNC1 [Compound 46, (S)-4-(2,3-dichloro-6-hydroxyphenyl)-1-((3-(hydroxymethyl)azetidin-3-yl)methyl)pyrrolidin-2-one]	> 7.00	< 4.00	–	–
C[C@@H](O)CN1C[C@H](c2c(O)ccc(Cl)c2Cl)CC1=O [Compound 53, (S)-4-(2,3-dichloro-6-hydroxyphenyl)-1-((R)-2-hydroxypropyl)pyrrolidin-2-one]	> 7.00	< 4.52	–	–
C[C@H](O)CN1C[C@H](c2c(O)ccc(Cl)c2Cl)CC1=O [Compound 54, (4S)-4-(2,3-dichloro-6-hydroxyphenyl)-1-[(2S)-2-hydroxypropyl]pyrrolidin-2-one]	> 7.00	< 4.52	–	–
CC(O)(CO)CN1C[C@H](c2c(O)ccc(Cl)c2Cl)CC1=O (stereo partly drawn) [Compound 55, (4S)-4-(2,3-dichloro-6-hydroxyphenyl)-1-(2,3-dihydroxy-2-methylpropyl)pyrrolidin-2-one]	> 6.00	< 4.00	–	–
Cn1cc(N2C[C@H](c3c(O)ccc(Cl)c3Cl)CC2=O)cn1 [Compound 56, (4S)-4-(2,3-dichloro-6-hydroxyphenyl)-1-(1-methylpyrazol-4-yl)pyrrolidin-2-one]	> 7.00	< 4.00	–	–
Cn1cc(N2CC(c3c(O)ccc(Cl)c3Cl)CC2=O)ccc1=O (centres unmarked) [Compound 57, 5-[4-(2,3-dichloro-6-hydroxyphenyl)-2-oxopyrrolidin-1-yl]-1-methylpyridin-2-one]	> 7.00	< 5.00	–	–
O=C1C[C@@H](c2c(O)ccc(Cl)c2Cl)CN1c1cn[nH]c1 [Compound 58, (S)-4-(2,3-dichloro-6-hydroxyphenyl)-1-(1H-pyrazol-4-yl)pyrrolidin-2-one]	> 7.00	< 4.52	–	–
Nc1ccc(N2C[C@H](c3c(O)ccc(Cl)c3Cl)CC2=O)cn1 [Compound 61, (S)-1-(6-aminopyridin-3-yl)-4-(2,3-dichloro-6-hydroxyphenyl)pyrrolidin-2-one]	> 7.00	< 5.00	–	–

Compound	pIC50 (Kv1.3 potassium channel; [3])	pIC50 (hERG channel [1])	pIC50 (Kv1.3 potassium channel; Kv1.3 IC50, CHO-K1 cells stably expressing Kv1.3)	pIC50 (hERG channel [2])
Nc1cc(N2C[C@H](c3c(O)ccc(Cl)c3Cl)CC2=O)ccn1 [Compound 62, (S)-1-(2-aminopyridin-4-yl)-4-(2,3-dichloro-6-hydroxyphenyl)pyrrolidin-2-one]	> 7.00	< 6.00	–	–
O=C1C[C@@H](c2c(O)ccc(Cl)c2Cl)CN1c1ccncc1 [Compound 64, (S)-4-(2,3-dichloro-6-hydroxyphenyl)-1-(pyridin-4-yl)pyrrolidin-2-one]	> 7.00	< 5.00	–	–
Cn1cc(N2C[C@H](c3c(O)ccc(Cl)c3Cl)CC2=O)nn1 [Compound 65, (S)-4-(2,3-dichloro-6-hydroxyphenyl)-1-(1-methyl-1H-1,2,3-triazol-4-yl)pyrrolidin-2-one]	> 6.00	< 5.00	–	–
Cn1cnc(N2C[C@H](c3c(O)ccc(Cl)c3Cl)CC2=O)n1 [Compound 66, (S)-4-(2,3-dichloro-6-hydroxyphenyl)-1-(1-methyl-1H-1,2,4-triazol-3-yl)pyrrolidin-2-one]	> 6.00	< 4.00	–	–
Cc1ncc(N2C[C@H](c3c(O)ccc(Cl)c3Cl)CC2=O)s1 [Compound 67, (S)-4-(2,3-dichloro-6-hydroxyphenyl)-1-(2-methylthiazol-5-yl)pyrrolidin-2-one]	> 7.00	< 4.00	–	–
Cn1ccc(N2C[C@H](c3c(O)ccc(Cl)c3Cl)CC2=O)cc1=O [Compound 68, (S)-4-(4-(2,3-dichloro-6-hydroxyphenyl)-2-oxopyrrolidin-1-yl)-1-methylpyridin-2(1H)-one]	> 6.00	< 4.00	–	–
O=C1C[C@@H](c2c(O)ccc(Cl)c2Cl)CN1c1cnoc1 [Compound 72, (4S)-4-(2,3-dichloro-6-hydroxyphenyl)-1-(isoxazol-4-yl)pyrrolidin-2-one]	> 6.00	< 4.00	–	–
O=C1C[C@@H](c2c(O)ccc(Cl)c2Cl)CN1C1CC(F)(F)C1 [Compound 74, (S)-4-(2,3-dichloro-6-hydroxyphenyl)-1-(3,3-difluorocyclobutyl)pyrrolidin-2-one]	> 6.00	< 4.52	–	–
O=C1CNCCN1CCN1C[C@H](c2c(O)ccc(Cl)c2Cl)CC1=O [Compound 75, 1-[2-[(4S)-4-(2,3-dichloro-6-hydroxyphenyl)-2-oxopyrrolidin-1-yl]ethyl]piperazin-2-one]	> 7.00	< 4.52	–	–
C[C@@H]1[C@H](c2c(O)ccc(Cl)c2Cl)CC(=O)N1C1CNC1 [Compound 82, (4S,5R)-1-(azetidin-3-yl)-4-(2,3-dichloro-6-hydroxyphenyl)-5-methylpyrrolidin-2-one]	> 7.00	–	–	< 4.52
C[C@H]1[C@H](c2c(O)ccc(Cl)c2Cl)CC(=O)N1CCCO [Compound 86, (4S,5S)-4-(2,3-dichloro-6-hydroxyphenyl)-1-(3-hydroxypropyl)-5-methylpyrrolidin-2-one]	> 7.00	< 4.52	–	–
N[C@H]1C(=O)N(C2CNC2)C[C@@H]1c1c(O)ccc(Cl)c1Cl [Compound 92, (3R,4S)-3-amino-1-(azetidin-3-yl)-4-(2,3-dichloro-6-hydroxyphenyl)pyrrolidin-2-one]	> 6.00	< 4.00	–	–
O=C1N[C@@H](c2c(O)ccc(Cl)c2Cl)CN1CCO [Compound 99, (4S)-4-(2,3-dichloro-6-hydroxyphenyl)-1-(2-hydroxyethyl)imidazolidin-2-one]	> 7.00	< 4.00	–	–
Cn1cc(N2C[C@H](c3c(O)ccc(Cl)c3Cl)NC2=O)cn1 [Compound 100, (4S)-4-(2,3-dichloro-6-hydroxyphenyl)-1-(1-methylpyrazol-4-yl)imidazolidin-2-one]	> 7.00	< 4.52	–	–
O=C1N[C@@H](c2c(O)ccc(Cl)c2Cl)CN1C[C@H](O)CO [Compound 102, (4S)-4-(2,3-dichloro-6-hydroxyphenyl)-1-[(2S)-2,3-dihydroxypropyl]imidazolidin-2-one]	> 7.00	< 4.00	–	–
O=C1N[C@@H](c2c(O)ccc(Cl)c2Cl)CN1C[C@@H](O)CO [Compound 103, (4S)-4-(2,3-dichloro-6-hydroxyphenyl)-1-[(2R)-2,3-dihydroxypropyl]imidazolidin-2-one]	> 6.00	< 4.00	–	–
O=C1N[C@@H](c2c(O)ccc(Cl)c2Cl)CN1CCCO [Compound 104, (4S)-4-(2,3-dichloro-6-hydroxyphenyl)-1-(3-hydroxypropyl)imidazolidin-2-one]	> 7.00	< 4.00	–	–
N[C@@H]1C(=O)N(CCO)C[C@@H]1c1c(O)ccc(Cl)c1Cl [Compound 105]	> 6.00	< 4.00	–	–
